Source: ChEMBL document CHEMBL4814080, “Design, Synthesis, and Biological Evaluation of Novel 1,3-Oxazole Sulfonamides as Tubulin Polymerization Inhibitors” (ACS Med Chem Lett, 2021)
The source made the active and inactive calls. No cut-off for these calls is given here.

How the values were obtained:
[1] = tested on: Panel NCI-60 (60 carcinoma cell lines); assay: Cytotoxicity against human Panel NCI-60 (60 carcinoma cell lines) assessed as cell growth at 10 uM after 48 hrs by sulforhodamine B assay relative to control; type: functional; conditions: read-out: Activity
leukaemia cell line = assay: Cytotoxicity against human leukaemia cell line assessed as cell growth inhibition measured after 48 hrs by sulforhodamine B assay; type: functional; conditions: for CC50: read-out: LC50 (the source's name)
[2] = (§1) Inhibition of porcine brain tubulin polymerization incubated for 60 mins by spectrophotometry; type: tissue-based, Sus scrofa
TK-10 = assay: Cytotoxicity against human TK-10 cells assessed as cell growth at 10 uM after 48 hrs by sulforhodamine B assay relative to control; type: functional; conditions: read-out: Activity
SR = assay: Cytotoxicity against human SR cells assessed as cell growth at 10 uM after 48 hrs by sulforhodamine B assay relative to control; type: functional; conditions: read-out: Activity
MOLT-4 = assay: Cytotoxicity against human MOLT-4 cells assessed as cell growth at 10 uM after 48 hrs by sulforhodamine B assay relative to control; type: functional; conditions: read-out: Activity
COLO 205 = assay: Cytotoxicity against human COLO 205 cells assessed as cell growth at 10 uM after 48 hrs by sulforhodamine B assay relative to control; type: functional; conditions: read-out: Activity
SK-OV-3 = assay: Cytotoxicity against human SK-OV-3 cells assessed as cell growth at 10 uM after 48 hrs by sulforhodamine B assay relative to control; type: functional; conditions: read-out: Activity
NCI/ADR-RES = assay: Cytotoxicity against human NCI/ADR-RES cells assessed as cell growth at 10 uM after 48 hrs by sulforhodamine B assay relative to control; type: functional; conditions: read-out: Activity
[3] = tested on: Panel NCI-60 (60 carcinoma cell lines); assay: Cytotoxicity against human Panel NCI-60 (60 carcinoma cell lines) assessed as cell growth inhibition measured after 48 hrs by sulforhodamine B assay; type: functional
Sus scrofa = organism: Sus scrofa; assay: as §1; type: tissue-based

SMILES | growth at 10 µM [1] [%] | GI50 (leukaemia cell line) [µM] | TGI (leukaemia cell line) [µM] | CC50 (leukaemia cell line) [µM] | other results
Cc1cc(NS(=O)(=O)c2ccc(-c3cnc(C4CC4)o3)cc2)ccc1Cl | 21.7 | 0.216 | 33.4 | > 100 | IC50 [2]: < 0.08 µM
O=S(=O)(Nc1cccc2ccccc12)c1ccc(-c2cnc(C3CC3)o2)cc1 | 28.6 | 0.0447 | 22.5 | > 100 | –
O=S(=O)(Nc1ccc(Cl)cc1)c1ccc(-c2cnc(C3CC3)o2)cc1 | 24.3 | – | – | – | growth at 10 µM (TK-10): 54.2%; growth at 10 µM (SR): 9.9%; growth at 10 µM (MOLT-4): 14.2%; growth at 10 µM (COLO 205): 9%; growth at 10 µM (SK-OV-3): 30.2%; growth at 10 µM (NCI/ADR-RES): 4.4%; GI50 [3]: 1.43 µM; LC50 (concentration causing 50% net cell kill) [3]: 57.4 µM
O=S(=O)(Nc1ccc(F)cc1)c1ccc(-c2cnc(C3CC3)o2)cc1 | 28.1 | – | – | – | growth at 10 µM (TK-10): 32.5%; growth at 10 µM (SR): 11.6%; growth at 10 µM (MOLT-4): 12.7%; growth at 10 µM (COLO 205): 20.2%; growth at 10 µM (SK-OV-3): 39.7%; growth at 10 µM (NCI/ADR-RES): -0.9%
O=S(=O)(Nc1ccc(I)cc1)c1ccc(-c2cnc(C3CC3)o2)cc1 | 57.3 | – | – | – | –
O=S(=O)(Nc1ccc(Br)cc1)c1ccc(-c2cnc(C3CC3)o2)cc1 | 26.9 | – | – | – | growth at 10 µM (TK-10): 64.1%; growth at 10 µM (SR): 12.7%; growth at 10 µM (MOLT-4): 15.8%; growth at 10 µM (COLO 205): 23.9%; growth at 10 µM (SK-OV-3): 35.5%; growth at 10 µM (NCI/ADR-RES): -2.2%; GI50 [3]: 2.75 µM; LC50 (concentration causing 50% net cell kill) [3]: 54 µM
O=S(=O)(Nc1cc(Cl)c(F)c(Cl)c1)c1ccc(-c2cnc(C3CC3)o2)cc1 | 37.1 | – | – | – | –
Cc1ccc(NS(=O)(=O)c2ccc(-c3cnc(C4CC4)o3)cc2)cc1 | 33.1 | – | – | – | –
O=S(=O)(Nc1ccc(Br)c(Cl)c1)c1ccc(-c2cnc(C3CC3)o2)cc1 | 21.5 | 0.491 | 70.3 | > 100 | IC50 [2]: < 0.08 µM
O=S(=O)(NCC(F)F)c1ccc(-c2cnc(C3CC3)o2)cc1 | 92.2 | – | – | – | growth at 10 µM (TK-10): 104%; growth at 10 µM (SR): 89.3%; growth at 10 µM (MOLT-4): 82.5%; growth at 10 µM (COLO 205): 94.5%; growth at 10 µM (SK-OV-3): 101%; growth at 10 µM (NCI/ADR-RES): 92.3%
O=S(=O)(Nc1ccc(Cl)c(C(F)(F)F)c1)c1ccc(-c2cnc(C3CC3)o2)cc1 | 11.4 | – | – | – | growth at 10 µM (TK-10): 3%; growth at 10 µM (SR): 3.5%; growth at 10 µM (MOLT-4): 5.2%; growth at 10 µM (COLO 205): 2.7%; growth at 10 µM (SK-OV-3): 0.8%; growth at 10 µM (NCI/ADR-RES): 2.9%; GI50 [3]: 0.655 µM; LC50 (concentration causing 50% net cell kill) [3]: 55.4 µM; IC50 [2]: 0.22 µM
CN(c1ccc(F)cc1)S(=O)(=O)c1ccc(-c2cnc(C3CC3)o2)cc1 | 31.8 | – | – | – | GI50 [3]: 1.18 µM
O=S(=O)(Nc1cccc(Cl)c1)c1ccc(-c2cnc(C3CC3)o2)cc1 | 24.2 | 0.477 | 54.2 | > 100 | –
Cc1cc(NS(=O)(=O)c2ccc(-c3cnc(C4CC4)o3)cc2)ccc1I | 35.9 | – | – | – | –
O=S(=O)(Nc1ccc2c(c1)OC(F)(F)O2)c1ccc(-c2cnc(C3CC3)o2)cc1 | 41.7 | – | – | – | –
Cc1ccc(Cl)c(NS(=O)(=O)c2ccc(-c3cnc(C4CC4)o3)cc2)c1 | 25.3 | 0.0488 | 52.8 | > 100 | –
CN(c1ccc(Br)cc1)S(=O)(=O)c1ccc(-c2cnc(C3CC3)o2)cc1 | 31.4 | – | – | – | GI50 [3]: 3.92 µM
Cc1ccc(NS(=O)(=O)c2ccc(-c3cnc(C4CC4)o3)cc2)cc1C | 22.8 | 0.42 | > 100 | > 100 | –
O=S(=O)(Nc1ccc(F)c(Cl)c1)c1ccc(-c2cnc(C3CC3)o2)cc1 | 23 | 0.26 | 73.7 | > 100 | –
O=S(=O)(Nc1ccc(N2CCOCC2)c(F)c1)c1ccc(-c2cnc(C3CC3)o2)cc1 | 92.2 | – | – | – | –
O=S(=O)(Nc1cc(F)cc(Cl)c1)c1ccc(-c2cnc(C3CC3)o2)cc1 | 30.3 | 1.44 | 77.5 | > 100 | –
COc1ccc(NS(=O)(=O)c2ccc(-c3cnc(C4CC4)o3)cc2)cc1Cl | 32.6 | – | – | – | –
O=S(=O)(Nc1ccc2ccccc2c1)c1ccc(-c2cnc(C3CC3)o2)cc1 | 28.9 | – | – | – | growth at 10 µM (TK-10): 61.9%; growth at 10 µM (SR): 16.5%; growth at 10 µM (MOLT-4): 20.2%; growth at 10 µM (COLO 205): 1.5%; growth at 10 µM (SK-OV-3): 32.7%; growth at 10 µM (NCI/ADR-RES): 9.7%; GI50 [3]: 1.84 µM; LC50 (concentration causing 50% net cell kill) [3]: 78.6 µM
O=S(=O)(Nc1ccc2c(c1)OCO2)c1ccc(-c2cnc(C3CC3)o2)cc1 | 35.8 | – | – | – | –
O=S(=O)(Nc1cc(Cl)cc(Cl)c1)c1ccc(-c2cnc(C3CC3)o2)cc1 | 36.9 | – | – | – | –
CN(c1ccc(Cl)cc1)S(=O)(=O)c1ccc(-c2cnc(C3CC3)o2)cc1 | 30.6 | – | – | – | –

SMILES | growth at 10 µM [1] [%] | GI50 (leukaemia cell line) [µM] | TGI (leukaemia cell line) [µM] | CC50 (leukaemia cell line) [µM] | other results
O=S(=O)(Nc1cc(Cl)ccc1Cl)c1ccc(-c2cnc(C3CC3)o2)cc1 | 34.6 | 1.02 | > 100 | > 100 | –
O=S(=O)(Nc1ccc(C(F)(F)F)c(Cl)c1)c1ccc(-c2cnc(C3CC3)o2)cc1 | 77.1 | – | – | – | –
O=S(=O)(Nc1ccc(Cl)cc1Cl)c1ccc(-c2cnc(C3CC3)o2)cc1 | 25 | 0.481 | 74.5 | > 100 | –
CC(=O)c1ccc(NS(=O)(=O)c2ccc(-c3cnc(C4CC4)o3)cc2)cc1 | 93.5 | – | – | – | –
Cc1ccc(NS(=O)(=O)c2ccc(-c3cnc(C4CC4)o3)cc2)cc1C(F)(F)F | 60.5 | – | – | – | –
O=S(=O)(Nc1ccc(F)cc1F)c1ccc(-c2cnc(C3CC3)o2)cc1 | 29.1 | 0.356 | 66 | > 100 | –
Cc1cc(Cl)cc(NS(=O)(=O)c2ccc(-c3cnc(C4CC4)o3)cc2)c1 | 31.6 | 0.175 | 7.04 | 84.9 | –
O=S(=O)(Nc1ccccc1Cl)c1ccc(-c2cnc(C3CC3)o2)cc1 | 27.4 | 0.429 | 49.7 | > 100 | –
O=S(=O)(Nc1cc(F)cc(F)c1)c1ccc(-c2cnc(C3CC3)o2)cc1 | 35.4 | 2.14 | 80 | > 100 | –
O=S(=O)(Nc1ccc(C(F)(F)F)cc1)c1ccc(-c2cnc(C3CC3)o2)cc1 | 94.5 | – | – | – | –
O=C1COCCN1c1ccc(NS(=O)(=O)c2ccc(-c3cnc(C4CC4)o3)cc2)cc1 | 96.7 | – | – | – | –
O=S(=O)(c1ccc(-c2cnc(C3CC3)o2)cc1)N1CCOCC1 | 94.2 | – | – | – | growth at 10 µM (TK-10): 101%; growth at 10 µM (SR): 91.3%; growth at 10 µM (MOLT-4): 95.3%; growth at 10 µM (COLO 205): 95%; growth at 10 µM (SK-OV-3): 112%; growth at 10 µM (NCI/ADR-RES): 93.5%
O=S(=O)(Nc1ccc(Cl)c(Cl)c1)c1ccc(-c2cnc(C3CC3)o2)cc1 | 25.3 | 0.416 | 62.1 | > 100 | IC50 [2]: < 0.08 µM
O=S(=O)(Nc1ccc(Cl)c(F)c1)c1ccc(-c2cnc(C3CC3)o2)cc1 | 23.8 | 0.38 | 63 | > 100 | –
Cc1cc(Cl)ccc1NS(=O)(=O)c1ccc(-c2cnc(C3CC3)o2)cc1 | 24 | 0.277 | 54.7 | > 100 | –
CC(=O)O[C@H]1C(=O)[C@@]2(C)[C@H]([C@H](OC(=O)c3ccccc3)[C@]3(O)C[C@H](OC(=O)[C@H](O)[C@@H](NC(=O)c4ccccc4)c4ccccc4)C(C)=C1C3(C)C)[C@]1(OC(C)=O)CO[C@@H]1C[C@@H]2O | – | – | – | – | inhibition (Sus scrofa): inactive
CS(=O)(=O)CCNS(=O)(=O)c1ccc(-c2cnc(C3CC3)o2)cc1 | 94.1 | – | – | – | growth at 10 µM (TK-10): 99.1%; growth at 10 µM (SR): 80.3%; growth at 10 µM (MOLT-4): 94.1%; growth at 10 µM (COLO 205): 94.4%; growth at 10 µM (SK-OV-3): 105%; growth at 10 µM (NCI/ADR-RES): 94.1%
O=S(=O)(Nc1ccc(I)cc1Cl)c1ccc(-c2cnc(C3CC3)o2)cc1 | 39.5 | – | – | – | –
O=S(=O)(Nc1ccc(C2CC2)cc1)c1ccc(-c2cnc(C3CC3)o2)cc1 | 63.4 | – | – | – | –
O=S(=O)(Nc1ccc(OC(F)F)cc1)c1ccc(-c2cnc(C3CC3)o2)cc1 | 63.1 | – | – | – | –
O=S(=O)(Nc1ccc(I)c(Cl)c1)c1ccc(-c2cnc(C3CC3)o2)cc1 | 29.8 | 1.01 | 19.6 | > 100 | –
COc1ccc(NS(=O)(=O)c2ccc(-c3cnc(C4CC4)o3)cc2)cc1 | 56.1 | – | – | – | –
N#Cc1ccc(NS(=O)(=O)c2ccc(-c3cnc(C4CC4)o3)cc2)cc1 | 95.7 | – | – | – | –
Cc1cc(F)cc(NS(=O)(=O)c2ccc(-c3cnc(C4CC4)o3)cc2)c1 | 28.1 | 0.138 | 7.25 | 78 | –
O=S(=O)(Nc1ccc(I)cc1F)c1ccc(-c2cnc(C3CC3)o2)cc1 | 49.8 | – | – | – | –
COc1cc(NS(=O)(=O)c2ccc(-c3cnc(C4CC4)o3)cc2)ccc1F | 25.9 | 0.328 | 75.7 | > 100 | –
